Source: US9260760B2, “Method for determining complete response to anticancer therapy” (Board of Regents, The University of Texas System, priority 2012, dated 2016)
“And” between values parts separate entries of the source, which are not always exact repeats. Identical values can stand only once.

Tested on: metastatic colorectal cancer
Experiment: Study 2: complete responders to XCEL; CR duration, PFS, OS, relapse
Format: in vivo, human
From the text: This retrospective study was approved by the institutional review board of The University of Texas M. D. Anderson Cancer Center. […] All patients were subjected to routine clinical examinations, laboratory analyses, and computed tomography before receiving XCEL described previously. All patient data were to be independently audited and radiographic images depicting CR were reviewed and agreed upon by two independent radiologists. All 19 patients had pathological confirmation of metastatic cancer ( ). Treatment-related toxicity was graded using the National Institutes of Health's Common Terminology Criteria for Adverse Events, version 3.0. Tumor responses were evaluated using RECIST criteria with complete response defined as complete radiographic disappearance of measurable or evaluable disease and normalization of tumor marker. The death date was ascertained by searching (ssdi.genealogy.rootsweb.com) using social security numbers. The cutoff point for collection of survival was October 2005. Continuous variables were summarized using the mean (±standard deviation) or the median (range). Categorical variables were summarized in frequency tables. Comparisons of important subgroups for these variables were made using the chi-square test or Fisher's exact test, as appropriate. Time to complete response was defined as time to start XCEL therapy to first documented radiographic complete response. Duration of complete response was defined as time to first CR to first recurrence or death. […] Patients were censored at the date of last follow-up if they had not progressed or died. Progression-free and overall survival distributions were summarized using the method of Kaplan and Meier. All response rates, progression-free survival and overall survival were calculated based on the 95% confidence interval (CI). Event chart was created using symbolized events versus time descriptively.

SMILES: Cc1ccc(-c2cc(C(F)(F)F)nn2-c2ccc(S(N)(=O)=O)cc2)cc1 [XCEL]
- relapse (all (eight relapses)): 41%
- carcinoma embryonic antigen level (all nine patients with elevated CEA): normalization of CEA
- Five-year OS (all patients): 64%
- Five-year PFS from XCEL (all patients): 57%
- median OS (all patients): 54 months
- CR rate (first-line responders): 90%
- first-line responders who achieved CR (in vivo): Eight of nine
- median time to CR (in vivo): 6.5 months
- median time to relapse from CR date (in vivo): 14 months
- Five-year PFS from XCEL (none-surgical group / unresected CR patients): 71% and 70%
- Five-year OS (none-surgical patients / unresected CR patients): 92%
- confirmed pathological CR (one patient): 5%
- median duration of CR (resected patients): 13 months
- relapse (resected patients): 67%
- CR rate (retroperitoneal nodal metastasis, with radiation): 50%
- patients who discontinued XCEL and remained in CR (six of 14 patients, median follow-up of 36 months): 43%
- median duration of CR (unresected patients): not reached
- relapse (unresected patients): 29%
- sustained CR rate (unresected patients): 70%
- CR site (unresected patients, carcinomatosis): 21%
- CR site (unresected patients, liver): 36%
- CR site (unresected patients, nodal disease): 43%
